Each structure is given as a SMILES string.

In one test the target is T1, Human BOAT1 (Homo sapiens, UniProt Q695T7).
T1 construct: expressed in transfected cells
T1 sequence (Q695T7 1-634): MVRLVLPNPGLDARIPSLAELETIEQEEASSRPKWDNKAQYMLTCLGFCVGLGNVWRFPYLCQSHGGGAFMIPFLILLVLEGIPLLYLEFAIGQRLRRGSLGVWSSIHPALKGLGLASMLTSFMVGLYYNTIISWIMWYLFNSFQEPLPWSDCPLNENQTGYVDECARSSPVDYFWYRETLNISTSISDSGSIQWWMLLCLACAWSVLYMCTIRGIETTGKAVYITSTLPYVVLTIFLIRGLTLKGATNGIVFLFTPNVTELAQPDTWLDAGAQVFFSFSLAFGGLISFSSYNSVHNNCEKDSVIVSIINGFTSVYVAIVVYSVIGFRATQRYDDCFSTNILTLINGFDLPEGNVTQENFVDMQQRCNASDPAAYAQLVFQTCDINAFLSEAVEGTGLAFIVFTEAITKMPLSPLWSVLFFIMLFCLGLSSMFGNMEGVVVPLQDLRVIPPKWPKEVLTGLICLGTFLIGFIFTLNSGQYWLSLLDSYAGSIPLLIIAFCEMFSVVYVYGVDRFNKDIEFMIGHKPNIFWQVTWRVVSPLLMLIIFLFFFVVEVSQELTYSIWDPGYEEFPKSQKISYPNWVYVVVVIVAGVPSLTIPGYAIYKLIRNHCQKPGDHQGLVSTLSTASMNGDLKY
The experiment in a line: hBOAT1 inhibitory test (phenylalanine uptake). It counts as cell-based. The conditions noted are these: Human BOAT1 stable expression CHO cells; [3H]-L-phenylalanine uptake, phenylalanine 0.25 mM; radioactivity after 100 to 200 min; read-out: hB0AT1 IC50. As for the experimental part:
A test compound dissolved in dimethyl sulfoxide (DMSO) was added to a 96 well plate for solid phase radioactivity measurement containing a scintillator at the bottom of the well (final concentration of DMSO 0.5%). DMSO alone as a control and DMSO containing N-(4-bromophenyl)-3,5-dichloro-2-hydroxybenzamide (final concentration […]) for the measurement of BOAT1 non-specific uptake were similarly added at 0.5 μL per well. Human BOAT1 stable expression CHO cells suspended in a buffer (buffer containing 96 mM sodium chloride, 2 mM potassium chloride, 1.8 mM calcium chloride, 1 mM magnesium chloride, 0.01% bovine serum albumin, and 10 mM 2-[4-(2-hydroxyethyl)-1-piperazinyl]ethanesulfonic acid) were added by 90 μL to 75000 cells/well. After standing at ordinary temperature for 30 min or longer, the cells were subjected to a phenylalanine uptake experiment. A buffer containing L-phenylalanine and [3,4,5-3H]-L-phenylalanine was added by 10 μL per well (final concentration of phenylalanine 0.25 mM), and the radioactivity of the plate bottom surface at ordinary temperature was measured with a scintillation counter over time, and the radioactivity value after 100 to 200 min was analyzed.
As to `O=C(/C=C/c1ccc(C(F)(F)F)cc1F)NCC(=O)N1CCN(C[C@H]2C[C@@H](C(=O)O)C2)CC1c1ccc(Cl)cc1` (mixture of isomers) [I-249, 3-[[3-(4-chlorophenyl)-4-[2-[[(E)-3-[2-fluoro-4-(trifluoromethyl)phenyl]prop-2-enoyl]amino]acetyl]piperazin-1-yl]methyl]cyclobutane-1-carboxylic acid], the IC50 was 96 nM.
Take `COC(=O)CCCN1CCN(C(=O)CNC(=O)/C=C/c2ccc(C(F)(F)F)cc2)C(c2ccccc2)C1` (stereo not drawn) [I-4]: the IC50 amounted to 50 nM.
Still for that read-out and setting: the figure for `COC(=O)CNc1ccc2c(c1)CCN(C(=O)CNC(=O)/C=C/c1ccc(C(F)(F)F)cc1)C2` [I-11] is 81 nM.
Same read-out and setting: the figure for `COC(=O)Cn1nc(C)c2c1CCN(C(=O)CNC(=O)/C=C/c1ccc(C(F)(F)F)cc1)C2` [I-12] is 89 nM; for `COC(=O)CCc1cc2c(s1)CN(C(=O)CNC(=O)/C=C/c1ccc(C(F)(F)F)cc1)CC2` [I-13] it is 123 nM; for `CC(C)(C)OC(=O)C1CCN(c2ccc3c(c2)CCN(C(=O)CNC(=O)/C=C/c2ccc(C(F)(F)F)cc2)C3)C1` (stereo not drawn) [I-26] it is 332 nM.
On the same count and under the same terms, the value for `CC(C)(C)OC(=O)CCc1ccc2c(c1)CCN(C(=O)CNC(=O)/C=C/c1ccc(C(F)(F)F)cc1)C2` [I-40] was 996 nM.
With `COc1cc(CC(=O)OC(C)(C)C)cc2c1CN(C(=O)CNC(=O)/C=C/c1ccc(C(F)(F)F)cc1)CC2` [I-43], the IC50 turned out to be 709 nM.
On to `COC(=O)c1cccc(C2CCCN(C(=O)CNC(=O)/C=C/c3ccc(C(F)(F)F)cc3F)C2)c1` (stereo not drawn) [I-61], for which the IC50 was 1670 nM.

The same test, now with this note: Human BOAT1 stable expression CHO cells; phenylalanine uptake, phenylalanine 0.25 mM; read-out: hB0AT1 IC50.
Take `O=C(O)CCCN1CCN(C(=O)CNC(=O)/C=C/c2ccc(C(F)(F)F)cc2F)C(c2cccc(Br)c2)C1` (single isomer, unassigned) [I-292, 4-[3-(3-bromophenyl)-4-[2-[[(E)-3-[2-fluoro-4-(trifluoromethyl)phenyl]prop-2-enoyl]amino]acetyl]piperazin-1-yl]butanoic acid]: the half-inhibitory concentration (IC50) was 1200 nM.
As for `O=C(O)CCCN1CCN(C(=O)CNC(=O)/C=C/c2ccc(C(F)(F)F)cc2F)C(c2cccc(Br)c2)C1` (single isomer, unassigned) [I-293, 4-[3-(3-bromophenyl)-4-[2-[[(E)-3-[2-fluoro-4-(trifluoromethyl)phenyl]prop-2-enoyl]amino]acetyl]piperazin-1-yl]butanoic acid], the 50% inhibitory concentration (IC50) was determined as 39 nM.
Same read-out and setting: the value for `O=C(O)CCCN1CCN(C(=O)CNC(=O)/C=C/c2ccc(C(F)(F)F)cc2F)C(c2ccc(Cl)cc2)C1` (single isomer, unassigned) [I-294, 4-[3-(4-chlorophenyl)-4-[2-[[(E)-3-[2-fluoro-4-(trifluoromethyl)phenyl]prop-2-enoyl]amino]acetyl]piperazin-1-yl]butanoic acid] was 266 nM; that for `O=C(O)CCCN1CCN(C(=O)CNC(=O)/C=C/c2ccc(C(F)(F)F)cc2F)C(c2ccc(Cl)cc2)C1` (single isomer, unassigned) [I-295, 4-[3-(4-chlorophenyl)-4-[2-[[(E)-3-[2-fluoro-4-(trifluoromethyl)phenyl]prop-2-enoyl]amino]acetyl]piperazin-1-yl]butanoic acid] was 51 nM; that for `O=C(/C=C/c1ccc(C(F)(F)F)cc1F)NCC(=O)N1CCN(CC2CC(C(=O)O)C2)CC1c1ccc(Cl)cc1` (single isomer, unassigned) [I-296, 3-[[3-(4-chlorophenyl)-4-[2-[[(E)-3-[2-fluoro-4-(trifluoromethyl)phenyl]prop-2-enoyl]amino]acetyl]piperazin-1-yl]methyl]cyclobutane-1-carboxylic acid] was 747 nM.
For `O=C(/C=C/c1ccc(C(F)(F)F)cc1F)NCC(=O)N1CCN(CC2CC(C(=O)O)C2)CC1c1ccc(Cl)cc1` (single isomer, unassigned) [I-297, 3-[[3-(4-chlorophenyl)-4-[2-[[(E)-3-[2-fluoro-4-(trifluoromethyl)phenyl]prop-2-enoyl]amino]acetyl]piperazin-1-yl]methyl]cyclobutane-1-carboxylic acid], the 50% inhibitory concentration (IC50) turned out to be 37 nM.

The values above are taken from patent publication US20260001849A1, “NOVEL B0AT1 INHIBITOR” (MITSUBISHI TANABE PHARMA CORPORATION, priority 2023, published 2026).
